In patent US20160206579A1 (INSERM (Institut National de la Santé et de la Recherche …, priority 2009, published 2016):

How the values were obtained:
[1] = system: retinal ganglion cells; test: Retinal ganglion cell degeneration induced by vigabatrin in young rats, Brn3A-positive RGC count in retinal sections; format: in vivo, Wistar rats
Protocol: Breeds of Wistar rats Rj Wi IOPS Han were purchased from Janvier (Le Genest-St-Isle, France). Vigabatrin (VGB) dissolved in 0.9% NaCl was administered at 0.6 mg/jour (6 mg/ml, 0.1 ml) to rats by daily intraperitoneal injection for 25 days from age 4 days. These daily doses (50 mg/kg for rats of 12 g) are in-line with those described for the treatment of epilepsy (adult patients: […]; children:50-75 mg/kg; or infants: 100-150 mg/kg) (Aicardi et al., 1996; Chiron et al., 1997; Lux et al., 2004).
Animals were anesthetized by intraperitoneal injection (0.8 to 1.2 ml/kg) of a solution containing ketamine (40 mg/ml) and xylazine (4 mg/ml Rompum). They were then perfused first with heparin 1000 UI/ml in saline solution (0.9% NaCl), then with fixative containing 4% Paraformaldehyde (Merck chemicals ref.: 100496) and 0.2% glutaraldehyde (fluka 25%). Eye cups were isolated and fixed overnight at 4° C. in 4% (wt/vol) paraformaldehyde in phosphate buffered saline (PBS; 0.01M, pH 7.4). The tissue was cryoprotected in successive solutions of PBS containing 10%, 20% and 30% sucrose at 4° C., oriented along the dorso-ventral axis and embedded in OCT (Labonord, Villeneuve d'Ascq, France). Retinal sections (8-10 μm thickness) were permeabilised for five minutes in PBS containing 0.1% Triton X-100 (Sigma, St. Louis, Mo.), rinsed, and incubated in PBS containing 1% bovine serum albumin (Eurobio, Les-Ulis, France), 0.1% Tween 20 (Sigma), and 0.1% sodium azide (Merck, Fontenay-Sous-Bois, France) for two hours at room temperature. The primary Brn3A monoclonal antibody (Chemicon) was added to the solution and incubated for two hours at room temperature. Sections were rinsed and then incubated with the secondary antibody, rabbit anti-mouse IgG conjugated to either Alexa™594 (1:500, Molecular Probes) for two hours. […] Quantifications were achieved on whole vertical sections cut along the dorso-ventral axis and crossing the optic nerve. […]

[2] = system: pure adult rat RGC in culture; test: Survival of pure cultured retinal ganglion cells (live-dead viability test, 6 DIV vs 1 DIV); format: cell-based, Long Evans rat; details: 1 mM taurine, 6 days in culture
Description: Primary cultures of pure ganglion cells: Primary cultures of retinal ganglion cells (RGC) were isolated from retinae of adult Long Evans rat (8-week old) with an immunopanning technique, according the protocol previously described in young rats by Barres et al. (1988). Briefly, animals were anesthetized and killed by cerebral dislocation and their eyes removed and placed in a solution of phosphate-buffered saline (PBS) containing 1 g/1 of glucose (PBS-glucose; Invitrogen, Carlsbad, Calif., USA). After one rinse in PBS-glucose, retinae were incubated in the same medium containing 33 UI/ml of papain (Worthington, Lakewood, N.J., USA) and 200 UI/ml of DNAse (Sigma-Aldrich, St-Louis, MO, USA) for 30 min at 37° C. They were then rinsed in PBS-glucose, containing 0.15% ovomucoid (Roche Diagnosis, Basel, Switzerland) and 0.15% bovine serum albumin (BSA; Sigma-Aldrich). […]
RGC viability was assessed with the “lived-dead” test (Invitrogen), which consists in labelling viable cells with calcein AM detected as a green fluorescence, whereas dead cell were labelled with ethidium producing a red fluorescence. […] Only lived RCG were counted from seven fields taken on each coverslip using a microscope (Leica DM 5000B, Solms, Germany) equipped for epifluorescence. Viable RCG were counted at 1 day in vitro (DIV) and 6 DIV to calculate the percentage of cell survival.

[3] = system: retinal ganglion cells; test: Episcleral vein occlusion rat model of glaucoma (taurine plasma level, IOP, photopic ERG, Brn-3a RGC count); format: in vivo, Long-Evans rats; details: taurine 0.2 M in drinking water, 3 months after occlusion, vs water animals; statistically significant
Protocol: Long-Evans rats (8-week old) were purchased from Janvier (Le Genest-St-Isle, France) whereas DBA/2J mice (8-month old) were purchased from Charles River (Larbresle, France). Heterozygous P23H rats (line 1) and Sprague Dawley rats (n=7) were bred at Charles River (Saint Aubin-les-Elbeuf, France).
Occlusion of episcleral veins was performed on 8 week-old Long-Evans or Wistar rats as described previously (Mittag et al., 2000). Animals were anesthetized with a mixture Ketamine (100 mg/Kg; Virbac, France) and, Xylazine (10 mg/Kg; Bayer, Leverkusen, Germany), and a local anesthesia (Tetracaine, Laboratoires TVM, Lempdes, France) were administrated on the cornea. At the level of the right eye, three episcleral veins, superonasal, superotemporal and inferotemporal, were emerged by removing the conjunctive tissue. Vein occlusion was realized by cauterization, using Aesculap® bipolar forceps (B. Braun, Melsungen, Germany). […]
IOP was measured from right and left eyes on awake animals using a Tonolab tonometer (Icare, Helsinki, Finland). The tonometer was applied perpendicularly to the cornea and three successive measures were recorded and the average was taken for the final value of IOP.
Photopic ERGs were performed on cauterized and control eyes from rats and DBA2/J mice. […] ERG were recorded using two gold loop electrodes were placed on the corneal surface of each eye and maintained with 3% Ocry-gel. […]

[4] = system: retinal ganglion cells; test: DBA/2J mice, model of pigmentary glaucoma (taurine plasma level, photopic ERG); format: in vivo; details: 12-month old DBA/2J mice, taurine supplementation for 4 months vs pure water
Protocol: Photopic ERGs were performed on cauterized and control eyes from rats and DBA2/J mice. Animals were anesthetized by an intramuscular injection with a solution containing a mixture of Ketamine (100 mg/Kg) and, Xylazine (10 mg/Kg). Pupils were dilated by a topical application of Mydriaticum, Laboratoires Thea, Clermont-Ferrand, France). ERG were recorded using two gold loop electrodes were placed on the corneal surface of each eye and maintained with 3% Ocry-gel. These recording electrodes were respectively referenced with two steel electrodes, inserted sub-cuteanously at the level of each cheek of animals. A needle electrode, also inserted sub-cuteanously, at the level of the basis of the tail served as ground. Responses to light stimulus were amplified, filtered and digitalized using the “Multiliner vision” program.
Statistical analysis of the results was performed on raw data. An unpaired student t test was used to compare means of 2 groups. For more than 2 groups compared, a one-way ANOVA was used for variance analysis, followed in case of significance by a Bonferroni post-hoc test to compare the means of each group. Differences were considered significant at *P<0.05; **P<0.01; and ***P<0.001.

[5] = system: retinal ganglion cells; test: P23H rat model of retinitis pigmentosa, Brn3a immunopositive RGC count in retinal sections; format: in vivo, heterozygous P23H rats
Description: Long-Evans rats (8-week old) were purchased from Janvier (Le Genest-St-Isle, France) whereas DBA/2J mice (8-month old) were purchased from Charles River (Larbresle, France). Heterozygous P23H rats and Sprague Dawley rats (n=7) were bred at Charles River (Saint Aubin-les-Elbeuf, France). For taurine supplementation, animals were divided in two groups: a control group and a group receiving taurine in its drinking water. […] Animals drinking water without added taurine were always considered as control animals.
Animals were anesthetized and killed by cerebral dislocation and their eyes were removed and placed into a fixative solution containing 4% paraformaldehyde (Merck chemicals, Darmstadt, Germany) for 24 hours. Eye cups were isolated and cryoprotected in successive solutions of PBS containing 10%, 20% and 30% sucrose at 4° C., oriented along the dorso-ventral axis and embedded in NEG50® (Microm, Francheville, France). Retinal sections were permeabilized for five minutes in PBS containing 0.1% Triton X-100 (Sigma, St. Louis, Mo.), rinsed, and incubated in PBS containing 1% bovine serum albumin (Sigma) and 0.05% Tween 20 (Sigma) for one hour at room temperature. […] Quantifications were achieved on whole vertical sections cut along the dorso-ventral axis and crossing the optic nerve. […]

[6] = system: RGCs in rat retinal explants; test: NMDA-treated retinal explants, Brn-3a-immunopositive RGC density on flat-mounts; details: for RGC density (Brn-3a-immunopositive): mean±s.e.m.
Protocol: E) Quantification of RGC densities from whole flat-mounted retinal explants using the automated counting platform. […] The scale bar represents 100 μm.
At the end of the incubation, RGCs were immunolabeled with an anti-Brn-3a antibody.

[7] = system: optic nerve; details: treated infants; Frisen and Malmgren 2003, Viestenz et al. 2003, Buncic et al. 2004; cited from earlier work
[8] = system: glutamate N-methyl-D-aspartate (NMDA) receptors; details: Seki M et al., 2008; cited from earlier work

With `NCCS(=O)(=O)O` [taurine, 2-aminoethanesulfonic acid] the “number of retinal ganglion cells greater than in VGB-treated group without supplementation” value ([1]; VGB-treated rats with taurine supplementation, p<0.001) was 84.9%, the “increase in number of surviving cells vs control conditions” value [2] was 49% and the “RGC survival at 6 DIV as percentage of that at 1 DIV” value ([2]; control conditions 18.2±1.8%, mean±SEM) was 27.2±3.7%. For the same molecule, the “decrease in photopic ERG amplitudes on operated eye” value [3] was “less important than in animals without taurine supplementation”, the “decrease in photopic ERG amplitudes” value [4] was “partially prevented” and the “average RGC number (brn3a immunopositive, retinal sections)” value ([5]; taurine 0.1 M in drinking water from 9 to 12 months, n=6, untreated P23H 298±12, Sprague-Dawley control 411±19, mean±SEM) was 344±8. For the same molecule, the RGC loss prevented ([5]; taurine 0.1 M in drinking water, P<0.01 vs untreated P23H) was 40%, the “cell loss rescued by co-incubation with NMDA” value ([6]; 100 μM NMDA plus 1 mM taurine for 4 days) was 22% and the “RGC density (Brn-3a-immunopositive)” value ([6]; 100 μM NMDA plus 1 mM taurine for 4 days, n=23, p<0.05 vs NMDA) was 655.7±44.4 cells/mm2.

For `C=CC(N)CCC(=O)O` (stereo not drawn) [VGB, Vigabatrin], the “decrease in number of retinal ganglion cells vs control” value ([1]; young rats treated with VGB, p<0.001) is given as 56%, the “number of retinal ganglion cells (Brn3A-positive, retinal sections)” value ([1]; young rats, VGB 0.6 mg/day i.p. for 25 days from age 4 days, control 15.06±0.93, s.e.m., n=10) is given as 6.56±0.32 and the optic nerve atrophy [7] is given as “induced an optic nerve atrophy”.

In the case of `CC12CC3CC(C)(C1)CC(N)(C3)C2` [memantine], the “RGC neuroprotection in models of glaucoma” value [8] is given as “exert an RGC neuroprotection”.

With `CN[C@H](CC(=O)O)C(=O)O` [NMDA, N-methyl-D-aspartate, reference compound] the “RGC density (Brn-3a-immunopositive)” value ([6]; 100 μM NMDA for 4 days, control 996.0±26.5, n=31) was 555.6±31.8 cells/mm2 and the “reduction in RGC density vs control” value ([6]; 100 μM NMDA for 4 days, p<0.001) was −44%.
